# In publication PMC12503906, “Novel Pyrazolo [1,5‐a]−1,3,5‐Triazine Derivatives as CDK7 Inhibitors: Synthesis and Biological Insights in Pancreatic Ductal Adenocarcinoma Models” (Chemmedchem, 2025):
# Read-outs that look alike come from different tables or passages of the source.
# Key:
# Format in all cases: cell-based
# PANC‐1 [1] = experiment: Cell cycle analysis (FACS, PI staining), PANC‐1; conditions: for percentage of cells in the G2‐M phase: untreated 18.1%; for percentage of cells in the G0‐G1 phase: untreated 40.7%; for percentage of cells in the S phase: untreated 41.3%
# Description: (§1) Modulation of the cell cycle was analyzed via flow cytometry. Cells (5 × 10^5 cells mL^− ^1) were seeded in 6‐well plates and were incubated at 37 °C overnight. Cells were treated with the compounds 1b and 1g at two different concentrations (1 × IC50 and 4 × IC50, according to each cell line) and were again incubated for 24 and 72 h. After treatment, cells were harvested with trypsin and were collected in specific fluorescence‐activated cell sorting (FACS) tubes. Cells were then washed with PBS and centrifuged at 1500 rpm for 5 min, in order to form a pellet. These pellets were fixed in 1 mL of ice‐cold 70% ethanol, added drop by drop during vortex, and placed in the refrigerator at 4 °C. After overnight incubation, the cells were washed twice with PBS, centrifuged (5 min at 1500 rpm), resuspended in 50 µL of RNase (100 µg mL^− ^1), and incubated for 30 min at 37 °C. Finally, 200 µL of propidium iodide solution (PI, 50 µg mL^− ^1) was added, and the cell distribution in the various phases of the cell cycle was analyzed via BD LSRFortessa Cell Analyzer. Data analysis was carried out with FACSdiva software (Becton Dickinson), while cell cycle distribution was determined using FCS express software.
# PDAC3 [2] = experiment: Cell cycle analysis (FACS, PI staining), PDAC3; conditions: for percentage of cells in the G2‐M phase: untreated 13.3%; for percentage of cells in the G0‐G1 phase: untreated 50.0%; for percentage of cells in the S phase: untreated 36.7%
# Description: as §1
# PDAC3 [3] = experiment: Wound healing assay, PDAC3; conditions: PDAC3, up to 24 h
# Description: The wound healing assay was used to test the migratory ability of the selected cells post‐treatment. Cells (5 × 10^4 /well) were seeded on 96‐well. After 24 h, cells reached the optimal 100% confluency, and an artificial wound was created with a 96‐well Pintool Scratcher. The cells were immediately washed with complete medium, in order to remove cell debris after the scratch, and images of the wells were captured at time 0 h, right before the addition of the treatment. Each drug (1b and 1g) was previously diluted in the respective medium at two different concentrations: 1 × IC50 and 4 × IC50 (according to the cell specific IC50 value) and were then added to the cells. Images were then taken at timepoints 4, 8, 20, and 24 h using the Leica microscope with a JAI TMC‐137 camera to assess wound closure. The images were analyzed using the Universal Grab 6.3 software (DCILabs), and the obtained data were used to determine the percentage of migration of the cells, using the following formula. (2) % Migration=Mean width of the wound atT=0−Mean width of the wound atT=X/Mean width of the wound atT=0×100
# SUIT 2.28 = experiment: SRB chemosensitivity assay, SUIT 2.28 cells; conditions: read-out: IC50 SUIT 2.28
# Description: (§2) Three lines of immortalized PDAC cells were selected as representative phenotypes: mesenchymal (PATU‐T), quasimesenchymal (PANC‐1), and an epithelial clone of SUIT 2 cells (SUIT 2.28). Cells were cultured in noncoated T‐75 and T‐25 flasks under adherent conditions, using 1× DMEM (Gibco, 41,966,029) for PATU‐T and RPMI (Gibco, 21,875,034) for SUIT 2.28 and PANC‐1, both supplemented with 10% NBCS and 1% P/S. Additional employed models were the PDAC3 cells, a primary cell culture, the PSCs, which were immortalized healthy pancreatic cells, and the PATU‐T‐GR, which was a gemcitabine resistant model of PATU‐T. PDAC3 and PSCs were cultivated using complete RPMI medium, while PATU‐T‐GR required complete DMEM medium. For seeding, cells were detached with Trypsin‐EDTA (0.05%) (GibcoTM, 25,300–096) and were consequently counted using the Automated Cell Counter (Luna‐II, Westburg). Cells were then plated on 96‐ or 6‐well plates depending on the planned experiment.
# (§3) The Sulforhodamine B (SRB) chemosensitivity assay was used to measure cytotoxicity and cell proliferation post drug treatment. At day 0, 3–6 × 10^3 cells were seeded in a 96‐well plate, depending on the cell line. At day 1, cells were attached and ready to be treated. For the calculation of the IC50, drug dilutions for the compounds 1b, 1c, 1d, 1e, 1g, 1hr, 1i, 1j, and LDC4297 (MedChemExpress, HY‐12,653) were prepared in dilution trays and eight different concentrations were included. These were added in triplicates to the cells, which were then incubated for […] at 37 °C in 5% CO2. During day 1, the control plate was fixed with 50% Trichloroacetic acid (TCA), as intended to be the baseline plate used for the normalization of the data. 72 h post‐treatment, the cells were fixed with TCA, and placed at 4 °C for about 2 h. The plates were then washed with distillated water and left to dry under the hood with ventilation. Subsequently, plates were stained with 0.4% SRB for 15 min and washed with 1% acetic acid to remove excess stain. Once dried again, the protein‐bound SRB was dissolved in 10 mM TRIS, and the plates were placed on a shaker for 10 min per plate. Lastly, the absorbance was measured at 492 nm with a spectrophotometer (Synergy HT, BioTek). The absorbance data obtained were normalized to the day 1 control, and the percentage of cell growth in relation to the control was calculated using the following formula. (1) %Cell growth=Mean OD treatment−Mean OD day0/Mean OD control−Mean OD day0×100
# (§4) The percentage of proliferation and their respective standard deviations were used to perform statistical analysis in GraphPad Prism software v 10 (GraphPad Software, San Diego, CA). Data were normalized to the day 0 control and to their own untreated 72 h control. These were transformed into logarithmic data, and log(inhibitor) versus response analysis was performed for obtaining the IC50 values per cell lines. Each experiment was conducted in triplicates.
# PANC‐1 [4] = experiment: SRB chemosensitivity assay, PANC‐1 cells; conditions: Homo sapiens, read-out: IC50 PANC‐1
# Description: as §2, §3, §4
SMILES,"percentage of cells in the G2‐M phase (PANC‐1 [1]; PANC‐1, 1 × IC50, 24 h) [%]","percentage of cells in the G0‐G1 phase (PANC‐1 [1]; PANC‐1, 1 × IC50, 24 h) [%]","percentage of cells in the S phase (PANC‐1 [1]; PANC‐1, 1 × IC50, 24 h) [%]","percentage of cells in the G2‐M phase (PANC‐1 [1]; PANC‐1, 4 × IC50, 24 h) [%]","percentage of cells in the G0‐G1 phase (PANC‐1 [1]; PANC‐1, 4 × IC50, 24 h) [%]","percentage of cells in the S phase (PANC‐1 [1]; PANC‐1, 4 × IC50, 24 h) [%]","percentage of cells in the G2‐M phase (PDAC3 [2]; PDAC3, 1 × IC50, 24 h) [%]","percentage of cells in the G0‐G1 phase (PDAC3 [2]; PDAC3, 1 × IC50, 24 h) [%]","percentage of cells in the G2‐M phase (PDAC3 [2]; PDAC3, 4 × IC50, 24 h) [%]","percentage of cells in the S phase (PDAC3 [2]; PDAC3, 4 × IC50, 24 h) [%]","percentage of cells in the G0‐G1 phase (PDAC3 [2]; PDAC3, 4 × IC50, 24 h) [%]",inhibition of cell migration (PDAC3 [3]),"IC50 (SUIT 2.28; SRB, 72 h of treatment, average ± SEM, triplicate) [nM]","IC50 (PANC‐1 [4]; PANC-1, SRB, 72 h of treatment, average ± SEM, triplicate) [nM]","percentage of cells in the S phase (PDAC3 [2]; PDAC3, 1 × IC50, 24 h) [%]",IC50 (SUIT 2.28; 72 h) [nM],"IC50 (PANC‐1 [4]; PANC-1, 72 h) [nM]"
"Nc1ncnc2cc(-c3c[nH]c4ccc(Br)cc34)nn12 [Compound 1b, 7‐(5‐Bromo‐1H‐indol‐3‐yl)pyrazolo[1,5‐a][1,3,5]triazin‐4‐amine]",12.2,55.0,32.7,10.0,62.8,28.3,11.1,44.0,6.9,51.6,41.6,significant migration inhibition only at the 24‐hour time point,600 ± 100,4300 ± 800,,,
"Cn1cc(-c2cc3ncnc(N)n3n2)c2cc(Br)ccc21 [Compound 1g, 7‐(5‐Bromo‐1‐methyl‐1H‐indol‐3‐yl)pyrazolo[1,5‐a][1,3,5]triazin‐4‐amine]",16.9,55.2,27.9,14.1,56.9,29.0,13.3,55.9,9.8,30.4,59.8,significant migration inhibition only at the 24‐hour time point,,,30.8,200 ± 100,2900 ± 800
